This passage reports minimal effective concentration results from patent US10174021B2, “Substituted pyrazolo[1,5-A]pyridines and their use” (BAYER PHARMA AKTIENGESELLSCHAFT, priority 2014, dated 2019).

The structures appear in SMILES notation. Counter-ions that a name gives are not always drawn.

The test system of this assay is recombinant guanylate cyclase reporter cell line. As to the kind of experiment: Effect on a recombinant guanylate cyclase reporter cell line. It counts as cell-based. Particulars: in some cases mean values from individual determinations, read-out: MEC (minimum effective concentration). How it is done: B-2. Effect on a Recombinant Guanylate Cyclase Reporter Cell Line
The cellular activity of the compounds according to the invention is determined using a recombinant guanylate cyclase reporter cell line, as described in F. Wunder et al., Anal. Biochem. 339, 104-112 (2005).
Representative MEC values (MEC=minimum effective concentration) for the compounds of the invention are shown in the table below (in some cases as mean values from individual determinations): […]
In the case of `Cc1cc(OCc2c(F)cccc2F)n2nc(C3CC3)c(-c3cn[nH]c3)c2c1` [Example 31, 2-Cyclopropyl-7-[(2,6-difluorobenzyl)oxy]-5-methyl-3-(1H-pyrazol-4-yl)pyrazolo[1,5-a]pyridine], the minimal effective concentration is 0.03 µM.
To `Cc1cc(OCc2c(F)cccc2F)n2nc(C)c(-c3cccc(CN4CCCC4)c3)c2c1` [Example 11, 7-[(2,6-Difluorobenzyl)oxy]-2,5-dimethyl-3-[3-(pyrrolidin-1-ylmethyl)phenyl]pyrazolo[1,5-a]pyridine] belongs 0.03 µM; to `COC(=O)CCn1cc(-c2c(C)nn3c(OCc4c(F)cccc4F)cc(C)cc23)cn1` [Example 21, Methyl 3-(4-{7-[(2,6-difluorobenzyl)oxy]-2,5-dimethylpyrazolo[1,5-a]pyridin-3-yl}-1H-pyrazol-1-yl)propanoate trifluoroacetate], 0.03 µM.
Under `CC(=O)c1cccc(-c2c(C)nn3c(OCc4c(F)cccc4F)cc(C)cc23)c1` [Example 2, 1-(3-{7-[(2,6-Difluorobenzyl)oxy]-2,5-dimethylpyrazolo[1,5-a]pyridin-3-yl}phenyl)ethanone] stands 0.53 µM.
To `Cc1cc(OCc2c(F)cccc2F)n2nc(C)c(-c3cccc(N4CCCC4)c3)c2c1` [Example 14, 7-[(2,6-Difluorobenzyl)oxy]-2,5-dimethyl-3-[3-(pyrrolidin-1-yl)phenyl]pyrazolo[1,5-a]pyridine] belongs 2 µM.
With `CCN(C)Cc1cccc(-c2c(C)nn3c(OCc4c(F)cccc4F)cc(C)cc23)c1` [Example 10, N-(3-{7-[(2,6-Difluorobenzyl)oxy]-2,5-dimethylpyrazolo[1,5-a]pyridin-3-yl}benzyl)-N-methylethanamine], the minimal effective concentration worked out at 0.065 µM.
To `CC(=O)Nc1cccc(-c2c(C)nn3c(OCc4c(F)cccc4F)cc(C)cc23)c1` [Example 3, 1-(3-{7-[(2,6-Difluorobenzyl)oxy]-2,5-dimethylpyrazolo[1,5-a]pyridin-3-yl}phenyl)acetamide] belongs 0.065 µM.
As to `Cc1cc(OCc2c(F)ccc(F)c2F)n2nc(C)c(-c3cnn(CCN4CCOCC4)c3)c2c1` [Example 32, 2,5-Dimethyl-3-{1-[2-(morpholin-4-yl)ethyl]-1H-pyrazol-4-yl}-7-[(2,3,6-trifluorobenzyl)oxy]pyrazolo[1,5-a]pyridine trifluoroacetate], the minimal effective concentration was 0.1 µM.
To `Cc1cc(OCc2c(F)cccc2F)n2nc(C)c(-c3cncnc3)c2c1` [Example 29, 7-[(2,6-Difluorobenzyl)oxy]-2,5-dimethyl-3-(pyrimidin-5-yl)pyrazolo[1,5-a]pyridine] belongs 0.3 µM; to `Cc1cc(OCc2c(F)cccc2F)n2nc(C)c(-c3cnn(CCC(=O)O)c3)c2c1` [Example 22, 3-(4-{7-[(2,6-Difluorobenzyl)oxy]-2,5-dimethylpyrazolo[1,5-a]pyridin-3-yl}-1H-pyrazol-1-yl)propanoic acid trifluoroacetate], 0.1 µM; to `Cc1cc(OCc2c(F)cccc2F)n2nc(C)c(-c3cc(F)ncc3F)c2c1` [Example 17, 7-[(2,6-Difluorobenzyl)oxy]-3-(2,5-difluoropyridin-4-yl)-2,5-dimethylpyrazolo[1,5-a]pyridine], 2 µM.
Take `Cc1cc(OCc2c(F)cccc2F)n2nc(C)c(-c3cncc(C(=O)O)c3)c2c1` [Example 27, 5-{7-[(2,6-Difluorobenzyl)oxy]-2,5-dimethylpyrazolo[1,5-a]pyridin-3-yl}nicotinic acid]: the minimal effective concentration is 2 µM.
On to `Cc1cc(OCc2c(F)cccc2F)n2nc(C)c(-c3cn[nH]c3)c2c1` [Example 1, 7-[(2,6-Difluorobenzyl)oxy]-2,5-dimethyl-3-(1H-pyrazol-4-yl)pyrazolo[1,5-a]pyridine], for which the minimal effective concentration worked out at 0.03 µM.
Under `Cc1cc(OCc2c(F)cccc2F)n2nc(C)c(-c3cnn(CCC(=O)NC4CC4)c3)c2c1` [Example 23, N-Cyclopropyl-3-(4-{7-[(2,6-difluorobenzyl)oxy]-2,5-dimethylpyrazolo[1,5-a]pyridin-3-yl}-1H-pyrazol-1-yl)propanamide] stands 0.03 µM; under `Cc1cc(OCc2c(F)cccc2F)n2nc(C)c(-c3cncc(C(N)=O)c3)c2c1` [Example 28, 5-{7-[(2,6-Difluorobenzyl)oxy]-2,5-dimethylpyrazolo[1,5-a]pyridin-3-yl}nicotinamide], 0.03 µM; under `Cc1cc(OCc2c(F)cccc2F)n2nc(C)c(-c3ccnc(N4CCNCC4)c3)c2c1` [Example 15, 7-[(2,6-Difluorobenzyl)oxy]-2,5-dimethyl-3-[2-(piperazin-1-yl)pyridin-4-yl]pyrazolo[1,5-a]pyridine], 0.3 µM.
Consider `Cc1cc(OCc2c(F)cccc2F)n2nc(C)c(-c3csc(CN4CCOCC4)c3)c2c1` [Example 4, 7-[(2,6-Difluorobenzyl)oxy]-2,5-dimethyl-3-[5-(morpholin-4-ylmethyl)-3-thienyl]pyrazolo[1,5-a]pyridine], for which the minimal effective concentration amounted to 0.07 µM.
Under `Cc1cc(OCc2c(F)cccc2F)n2nc(C)c(-c3cnn(CC(C)(C)N)c3)c2c1` [Example 16, 1-(4-{7-[(2,6-Difluorobenzyl)oxy]-2,5-dimethylpyrazolo[1,5-a]pyridin-3-yl}-1H-pyrazol-1-yl)-2-methylpropane-2-amine] stands 0.1 µM.
`Cc1cc(OCc2c(F)cccc2F)n2nc(C)c(-c3cnn(Cc4ccccc4)c3)c2c1` [Example 6, 3-(1-Benzyl-1H-pyrazol-4-yl)-7-[(2,6-difluorobenzyl)oxy]-2,5-dimethylpyrazolo[1,5-a]pyridine]: the minimal effective concentration came out at 0.1 µM.
Under `CCS(=O)(=O)c1cccc(-c2c(C)nn3c(OCc4c(F)cccc4F)cc(C)cc23)c1` [Example 7, 7-[(2,6-Difluorobenzyl)oxy]-3-[3-(ethylsulphonyl)phenyl]-2,5-dimethylpyrazolo[1,5-a]pyridine] stands 0.065 µM; under `Cc1cn2c(-c3cn[nH]c3)c(C)nc2c(OCc2c(F)cccc2F)n1` [Example 19, 8-[(2,6-Difluorobenzyl)oxy]-2,6-dimethyl-3-(1H-pyrazol-4-yl)imidazo[1,2-a]pyrazine trifluoroacetate], 0.3 µM; under `Cc1cn2c(-c3nc(N)nc(N)n3)c(C)nc2c(OCc2c(F)cccc2F)n1` [Example 20, 6-{8-[(2,6-Difluorobenzyl)oxy]-2,6-dimethylimidazo[1,2-a]pyrazin-3-yl}-1,3,5-triazine-2,4-diamine trifluoroacetate], 2 µM.
Under `Cc1cc(OCc2c(F)cccc2F)n2nc(C)c(-c3cnn(-c4ccc(F)cc4)c3)c2c1` [Example 8, 7-[(2,6-Difluorobenzyl)oxy]-3-[1-(4-fluorophenyl)-1H-pyrazol-4-yl]-2,5-dimethylpyrazolo[1,5-a]pyridine] stands 1 µM.
To `CCOC(=O)c1cncc(-c2c(C)nn3c(OCc4c(F)cccc4F)cc(C)cc23)c1` [Example 18, Ethyl 5-{7-[(2,6-difluorobenzyl)oxy]-2,5-dimethylpyrazolo[1,5-a]pyridin-3-yl}nicotinate] belongs 10 µM; to `Cc1cc(OCc2c(F)cccc2F)n2nc(C)c(-c3nc(NCC(C)(C)N)c4c(n3)NC(=O)C4(C)C)c2c1` [Example 35, 4-[(2-Amino-2-methylpropyl)amino]-2-{7-[(2,6-difluorobenzyl)oxy]-2,5-dimethylpyrazolo[1,5-a]pyridin-3-yl}-5,5-dimethyl-5,7-dihydro-6H-pyrrolo[2,3-d]pyrimidin-6-one], 3 µM; to `Cc1cc(OCc2c(F)cccc2F)n2nc(C)c(-c3cccc(C(N)=O)c3)c2c1` [Example 12, 3-{7-[(2,6-Difluorobenzyl)oxy]-2,5-dimethylpyrazolo[1,5-a]pyridin-3-yl}benzamide], 0.055 µM.
In the case of `Cc1cc(OCC2CCCCC2)n2nc(C)c(-c3cnn(CCN4CCOCC4)c3)c2c1` [Example 33, 7-(Cyclohexylmethoxy)-2,5-dimethyl-3-{1-[2-(morpholin-4-yl)ethyl]-1H-pyrazol-4-yl}pyrazolo[1,5-a]pyridine], the minimal effective concentration is 0.1 µM.
Under `Cc1cc(OCc2c(F)cccc2F)n2nc(C)c(-c3nc(N)c4c(n3)NC(=O)C4(C)C)c2c1` [Example 34, 4-Amino-2-{7-[(2,6-difluorobenzyl)oxy]-2,5-dimethylpyrazolo[1,5-a]pyridin-3-yl}-5,5-dimethyl-5,7-dihydro-6H-pyrrolo[2,3-d]pyrimidin-6-one trifluoroacetate] stands 1 µM; under `Cc1cc(OCc2c(F)cccc2F)n2nc(C)c(-c3cnn(CCN4CCOCC4)c3)c2c1` [Example 5, 7-[(2,6-Difluorobenzyl)oxy]-2,5-dimethyl-3-{1-[2-(morpholin-4-yl)ethyl]-1H-pyrazol-4-yl}pyrazolo[1,5-a]pyridine], 0.07 µM; under `Cc1cc(OCc2c(F)cccc2F)n2nc(C3CC3)c(-c3cnn(CCN4CCOCC4)c3)c2c1` [Example 30, 2-Cyclopropyl-7-[(2,6-difluorobenzyl)oxy]-5-methyl-3-{1-[2-(morpholin-4-yl)ethyl]-1H-pyrazol-4-yl}pyrazolo[1,5-a]pyridine], 0.01 µM.
For `Cc1cc(OCc2c(F)cccc2F)n2nc(C)c(-c3cnc(Cl)c(C)c3)c2c1` [Example 9, 3-(6-Chloro-5-methylpyridin-3-yl)-7-[(2,6-difluorobenzyl)oxy]-2,5-dimethylpyrazolo[1,5-a]pyridine], the minimal effective concentration stood at 3 µM.
To `Cc1cc(OCc2c(F)cccc2F)n2nc(C)c(-c3cnn(CCc4c(C)n[nH]c4C)c3)c2c1` [Example 25, 7-[(2,6-Difluorobenzyl)oxy]-3-{1-[2-(3,5-dimethyl-1H-pyrazol-4-yl)ethyl]-1H-pyrazol-4-yl}-2,5-dimethylpyrazolo[1,5-a]pyridine] belongs 0.065 µM.
